Reference: patent US6544789B1, “Phosphorus-controllable recombinant expression of polypeptides in plants” (Board of Trustees, Rutgers, The State University of New …, priority 2000, dated 2003)

Columns and labels:
acid phosphatase (APase) = assay: APase activity in growth medium of B. juncea plants (p-NPP substrate, 410 nm); format: in vivo, Brassica juncea; settings: after 6 days incubation
Protocol: Expression and secretion studies of B. juncea began with the germination of B. juncea seeds in Petri dishes on Gamborg's B-5 (Life Technologies, Gibco BRL, Grand Island, N.Y.) agar medium. Germinated seedlings were then transferred to 20 ml vials containing one-quarter-strength Hoagland's solution (Arnon et al., Soil Sci. 50:463-483 (1940)). Plants were grown in shaker-incubators (25 rpm), at 24° C. under a 16-hour photoperiod, with 150 mE/m^2/s illumination provided by a mixture of fluorescent and incandescent lamps. After 10 days, plants were transferred into 125 ml flasks with 120 ml of 0.25×Hoagland solution containing one of the following concentrations of phosphorus: 3 mM, 1 mM, 0.25 mM or 0.01 mM (i.e., phosphorus deficiency). In the low phosphorus medium, (NH4)2SO4 was substituted for NH4H2PO4. The volume of medium in each flask was adjusted daily to 120 ml and the exudate-containing media were sampled for APase activity.
Unconcentrated media samples were subjected to chromogenic determination at 410 nm. The activity of APase in the growth medium was determined using p-nitrophenyl-1-phosphate (p-NPP, Sigma Chemical Co., St. Louis, Mo.) as substrate and 50 mM Na-acetate buffer, pH 4.6, in a water bath at 37° C. (Ascencio, J., J. Plant Nutr. 20:9-26 (1997)). The reaction was stopped after 1 hour with a 1 M Na2CO3 solution and the yellow p-nitrophenol (PNP) was measured at 410 nm in a DU 640 Spectrophotometer (Beckman Instruments, Columbia, Md.). […] Thus, expression of the exuded A. thaliana APase was de-repressed by phosphorus starvation.

APase promoter = assay: GUS expression in Pr-GUS transformants grown in sand culture (specificity of APase promoter induction); format: in vivo, Arabidopsis thaliana; set-up: key to relative GUS expression: “−” (lowest); “+/−,”; “+,”; “++,”; “+++” (highest); settings: for relative GUS expression: 100 μM, 14-day-old seedlings
Protocol: A screening method was developed to evaluate GUS expression levels in the various transformed lines: T2 seedlings were germinated in pots containing fine granules of washed sand (40-100 mesh Fisher Scientific, Pittsburgh, Pa.). To remove trace amounts of contaminating elements, the sand was previously washed by soaking it in 0.1 M HCl for 45 minutes and then washing it extensively with ddH2O until the sand mixture reached pH 6.5. Seedlings were grown in standard phosphorus medium for 14 days before transfer to phosphorus-deficient medium. GUS expression in plants subjected to phosphorus-deficient conditions for 14 days is shown in FIGS. 4A-4D (FIG. 4A—lateral root primordium with localized GUS expression, FIG. 4B—GUS expression in several cell layers of lateral root primordium; FIG. 4C—emerging lateral root meristem; FIG. 4D—lateral root meristems (LRM) and an apical root meristem (ARM)). Seedlings were also germinated in pots containing washed sand, and then fertilized using 0.25×Hoagland's medium with or without phosphorus (0.25 mM), and examined after 10 days. GUS expression in the roots of these seedlings (FIG. 4F) or in the whole seedlings (FIG. 4G—not starved; FIG. 4H—starved) is shown. Phosphorus starvation symptoms were evident 8 days after sowing. Plant expression was examined by staining with x-gluc (i.e., 5-bromo-4-chloro-3-indolyl β-D-glucuronide), as described below, to evaluate GUS expression.
GUS activity was determined according to the method of Jefferson et al., EMBO J. 6:3901-3907 (1987). After staining, tissue was fixed in 1.5% formaldehyde-4% acetic acid-30% ethanol for 30 minutes, dehydrated through a graded ethanol series (50, 95, 100% for 20 minutes at each step), incubated 2 hours at 100% ethanol, and rehydrated through a graded ethanol series (95 and 50%, for 20 minutes each step). Rehydrated tissues were stored in H2O.
Pr-GUS transformants, germinated and grown in sand culture, were used to test the specificity of APase promoter induction by either inducing nutritional deficiencies other than P-limitation or by using such known chemical inducers of gene expression as salicylic acid (Ward et al., Plant Cell 3:1085-1094 (1991)) and jasmonic acids (Staswick, et al., Plant Physiol 96:130-136 (1991), Creelman et al., New Phytol. 75:479-490 (1992)) (Tables 1 and 2). Seedlings were germinated in pots containing washed sand and fertilized with modified 0.25×Hoagland's medium optionally lacking nitrogen (N), potassium (K), or iron (Fe). Nitrogen-free Hoagland's medium was prepared by substituting K2HPO4 for (NH4)2SO4, CaSO4 for Ca(NO3)2 and K2SO4 for KNO3. Potassium-free Hoagland's medium was prepared by substituting NaNO3 for KNO3. Iron deficient medium was prepared by removing Fe-EDTA from the medium composition. Aqueous solutions of salicylic acid (SA), jasmonic acid (JA), and mannose were supplied to 14-day-old seedlings by spraying until solutions ran off the seedlings; approximately 20 ml of 2.5-fold concentrated solution was added to the sand at the same time.
Both chemical inducers were applied at concentrations capable of strongly inducing a variety of plant genes. These treatments were compared to the effects of P removal (Table 1, where “P” is phosphorus, N is nitrogen, K is potassium, and Fe is iron, “+” indicates presence and “−” indicates absence, and relative expression is indicated on a scale of “−” (lowest), “+/−,” “+,” “++,” to “+++” (highest)) or the addition of mannose (Table 2, where is indicated on a scale of “−” (lowest), “+/−,” “+,” “++,” to “+++” (highest)). Mannose is known to induce P deficiency in plant cells by virtue of its ability to bind cellular phosphates as mannose 6-phosphate (Watkins, et al., Plant Physiol. 97:139-146 (1987)), thereby acting as an agent that associates with a phosphorus compound. […] Seventeen days after sowing, the experiment was terminated.

SMILES	APase activity in exudate-containing medium (acid phosphatase (APase); 0.01 mM phosphorus)	APase activity in exudate-containing medium (acid phosphatase (APase); 0.25 mM phosphorus)	APase activity in exudate-containing medium (acid phosphatase (APase); 1 mM phosphorus)	APase activity in exudate-containing medium (acid phosphatase (APase); 3 mM phosphorus)	expression of GUS on addition of phosphorus to the medium (APase promoter; phosphorus-starved plants)	relative GUS expression (APase promoter; 1 day after treatment)	relative GUS expression (APase promoter; 3 days after treatment)	relative GUS expression (APase promoter; 5 days after treatment)	relative GUS expression (APase promoter; 7 days after treatment)
[P] [phosphorus]	~0.33 A410/(ml-hour)	~0.21 A410/(ml-hour)	~0.09 A410/(ml-hour)	approximately 0.04 A410/(ml-hour)	diminished				
O=C(O)c1ccccc1O [salicylic acid]						−	+	−	+/−
CC/C=C\C[C@H]1C(=O)CC[C@@H]1CC(=O)O [jasmonic acid]						−	−	−	−
